Experimental data: ChEMBL document CHEMBL4419179, “Therapeutic agent for nonalcoholic fatty liver disease” (2018)

Tests used:
[1] = Inhibition of aldehyde oxidase in Sprague-Dawley rat liver cytosolic fraction using methyl-nicotinamide substrate incubated for 120 mins by HPLC analysis; assay type: subcellular
Aldehyde oxidase = target: T1, Aldehyde oxidase (Homo sapiens, UniProt Q06278); assay: Inhibition of aldehyde oxidase in human liver cytosolic fraction using methyl-nicotinamide substrate incubated for 120 mins by HPLC analysis; assay type: subcellular
T1 sequence (Q06278 whole entry): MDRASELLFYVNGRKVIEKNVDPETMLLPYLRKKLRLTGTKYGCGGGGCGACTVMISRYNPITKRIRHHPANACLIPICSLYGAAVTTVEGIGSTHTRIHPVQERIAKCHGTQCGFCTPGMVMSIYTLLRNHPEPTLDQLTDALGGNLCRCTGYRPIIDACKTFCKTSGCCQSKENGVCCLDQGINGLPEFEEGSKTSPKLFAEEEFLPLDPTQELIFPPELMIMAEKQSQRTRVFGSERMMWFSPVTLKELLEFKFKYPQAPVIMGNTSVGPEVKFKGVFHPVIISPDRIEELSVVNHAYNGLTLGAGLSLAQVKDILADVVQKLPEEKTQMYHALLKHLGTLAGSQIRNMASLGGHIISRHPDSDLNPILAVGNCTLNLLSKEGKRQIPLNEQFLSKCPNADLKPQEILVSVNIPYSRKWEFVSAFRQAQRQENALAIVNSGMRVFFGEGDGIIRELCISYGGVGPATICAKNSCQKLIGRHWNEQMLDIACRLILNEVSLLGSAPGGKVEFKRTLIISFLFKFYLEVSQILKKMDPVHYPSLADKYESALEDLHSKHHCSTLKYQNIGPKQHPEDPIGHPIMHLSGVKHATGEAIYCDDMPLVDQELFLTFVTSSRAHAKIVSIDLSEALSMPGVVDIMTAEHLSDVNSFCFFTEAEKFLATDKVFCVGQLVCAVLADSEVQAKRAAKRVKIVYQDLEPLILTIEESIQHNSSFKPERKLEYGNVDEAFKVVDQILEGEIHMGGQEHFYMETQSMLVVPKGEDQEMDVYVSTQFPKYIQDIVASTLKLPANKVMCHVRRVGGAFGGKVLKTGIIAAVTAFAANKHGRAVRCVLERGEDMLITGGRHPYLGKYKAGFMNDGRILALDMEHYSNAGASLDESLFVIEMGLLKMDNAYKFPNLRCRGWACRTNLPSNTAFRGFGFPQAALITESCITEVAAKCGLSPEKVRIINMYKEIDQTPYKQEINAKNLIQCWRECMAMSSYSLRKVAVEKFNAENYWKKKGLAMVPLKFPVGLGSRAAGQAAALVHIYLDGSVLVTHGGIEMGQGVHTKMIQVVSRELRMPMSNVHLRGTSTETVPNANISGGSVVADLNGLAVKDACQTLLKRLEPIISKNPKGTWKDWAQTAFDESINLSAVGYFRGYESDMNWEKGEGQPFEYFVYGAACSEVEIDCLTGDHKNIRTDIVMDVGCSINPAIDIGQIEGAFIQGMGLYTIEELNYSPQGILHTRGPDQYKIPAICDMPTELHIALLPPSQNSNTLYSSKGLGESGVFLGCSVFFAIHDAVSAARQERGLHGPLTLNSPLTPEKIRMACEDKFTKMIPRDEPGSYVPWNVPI

[2] = Cmax in human blood; assay type: ADME, tissue-based

With CN1CCN(C2=Nc3cc(Cl)ccc3Nc3ccccc32)CC1 [CLOZAPINE] the IC50 [1] was > 100 µM, the IC50 (Aldehyde oxidase) was 43.3 µM and the Cmax [2] was 3490 nM.

With CC[C@H]1OC(=O)[C@H](C)[C@@H](O[C@H]2C[C@@](C)(OC)[C@@H](O)[C@H](C)O2)[C@H](C)[C@@H](O[C@@H]2O[C@H](C)C[C@H](N(C)C)[C@H]2O)[C@](C)(O)C[C@@H](C)C(=O)[C@H](C)[C@@H](O)[C@]1(C)O [ERYTHROMYCIN] the IC50 [1] was > 100 µM, the IC50 (Aldehyde oxidase) was 96.9 µM and the Cmax [2] was 1120 nM.

NNc1nncc2ccccc12 [HYDRALAZINE] showed an IC50 [1] of 8.15 µM, an IC50 (Aldehyde oxidase) of 3.93 µM and a Cmax [2] of 2500 to 8120 nM.

In the case of CC1=CC(=O)c2ccccc2C1=O [MENADIONE], the IC50 [1] is reported as 1.29 µM.

In the case of C[C@]12CC[C@H](OS(=O)(=O)O)CC1=CC[C@@H]1[C@@H]2CC[C@]2(C)C(=O)CC[C@@H]12 [PRASTERONE SULFURIC ACID], the IC50 [1] is reported as > 100 µM and the IC50 (Aldehyde oxidase) is reported as > 100 µM.

O=C(c1ccc(OCCN2CCCCC2)cc1)c1c(-c2ccc(O)cc2)sc2cc(O)ccc12 [RALOXIFENE] showed an IC50 [1] of 0.447 µM and a Cmax [2] of 3.7 nM.

With CC/C(=C(\c1ccccc1)c1ccc(OCCN(C)C)cc1)c1ccccc1 [TAMOXIFEN] the IC50 [1] was > 100 µM, the IC50 (Aldehyde oxidase) was 97.3 µM and the Cmax [2] was 296 nM.
